US20160002248A1, “GLS1 INHIBITORS FOR TREATING DISEASE” (Board of Regents, The University of Texas System, priority 2014, published 2016)

Legend:
[1] = target: T1, purified recombinant human GAC (GLS1) (Homo sapiens, UniProt O94925); assay: GLS1 Enzymatic Activity Assay (dual-coupled enzymatic assay); format: biochemical
T1 sequence (O94925 55-598 isoform O94925-3 limits assumed): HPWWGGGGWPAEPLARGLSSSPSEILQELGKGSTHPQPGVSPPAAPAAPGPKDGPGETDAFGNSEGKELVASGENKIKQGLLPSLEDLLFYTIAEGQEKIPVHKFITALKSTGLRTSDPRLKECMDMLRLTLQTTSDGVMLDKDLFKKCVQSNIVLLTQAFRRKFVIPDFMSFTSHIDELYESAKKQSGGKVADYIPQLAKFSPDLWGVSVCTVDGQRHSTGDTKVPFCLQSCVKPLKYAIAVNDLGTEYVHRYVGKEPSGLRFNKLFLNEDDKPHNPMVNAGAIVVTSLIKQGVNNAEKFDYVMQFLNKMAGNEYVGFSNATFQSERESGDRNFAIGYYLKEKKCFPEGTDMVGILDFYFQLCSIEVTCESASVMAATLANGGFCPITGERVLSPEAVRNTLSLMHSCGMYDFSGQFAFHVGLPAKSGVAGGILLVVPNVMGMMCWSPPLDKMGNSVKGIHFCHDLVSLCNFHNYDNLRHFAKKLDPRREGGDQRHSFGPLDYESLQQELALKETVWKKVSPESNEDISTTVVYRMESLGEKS
Method: GLS1 Enzymatic Activity Assay
The inhibition of purified recombinant human GAC by varying concentrations of inhibitors is assessed via a dual-coupled enzymatic assay. The glutamate produced by the glutaminase reaction is used by glutamate oxidase to produce α-ketoglutarate, ammonia, and hydrogen peroxide, with this hydrogen peroxide subsequently being used by horseradish peroxidase to produce resorufin in the presence of Amplex UltraRed. The assay buffer consisted of 50 mM Hepes (pH 7.4), 0.25 mM EDTA and 0.1 mM Triton X-100. GAC was incubated with potassium phosphate (10 minutes at room temperature) prior to incubation with inhibitor (10 minutes at room temperature). The final reaction conditions were as follows: 2 nM GAC, 50 mM potassium phosphate, 100 mU/mL glutamate oxidase (Sigma), 1 mM glutamine (Sigma), 100 mU/mL horseradish peroxidase (Sigma), 75 μM Amplex UltraRed (Life Technologies), and 1% (v/v) DMSO. The production of resorufin was monitored on a Perkin Elmer Envision plate reader (excitation 530 nm, emission 590 nm) either in a kinetics or endpoint mode (at 20 minutes). IC50 values were calculated using a four-parameter logistic curve fit.

A549 cells = assay: Proliferation Assay (A549 cell viability, Cell Titer Fluor); format: cell-based; settings: Homo sapiens, 72 hours
Method: A549 cells were routinely maintained in RPMI 1640 media (Gibco catalog number 11875-093) supplemented with 10% dialyzed fetal bovine serum using a humidified incubator (37° C., 5% CO2 and ambient O2). In preparation for the viability assay, cells were inoculated into 384-well black CulturPlates (Perkin Elmer) at a density of 1000 cells/well in a volume of 40 uL. Following a 24-hour incubation at 37° C., 5% CO2 and ambient O2, cells were treated with compound (10 uL) in a final DMSO concentration of 0.5% (v/v). The microplates were then incubated for 72 hours (37° C., 5% CO2 and ambient O2). Cell Titer Fluor (Promega) was subsequently added (10 uL of 6× reagent) and mixed for 15 minutes at room temperature. The plates were then incubated for 30 minutes (37° C., 5% CO2 and ambient O2) and fluorescence was subsequently read on the Perkin Elmer Envision plate reader. EC50 values were calculated using a four-parameter logistic curve fit.

Structure (SMILES)	IC50 [1]	EC50 (A549 cells)
O=C(NCc1cccnc1)c1cn(CCCCc2cc3cc(C4CC4)[nH]c3nn2)nn1 [Example 36, 1-(4-{6-cyclopropyl-7H-pyrrolo[2,3-c]pyridazin-3-yl}butyl)-N-(pyridin-3-ylmethyl)-1H-1,2,3-triazole-4-carboxamide]	100 to 500 nM	100 to 500 nM
O=C(NCc1ccncc1)c1cn(CCCCc2cc3cc(C4CC4)[nH]c3nn2)nn1 [Example 37, 1-(4-{6-cyclopropyl-7H-pyrrolo[2,3-c]pyridazin-3-yl}butyl)-N-(pyridin-4-ylmethyl)-1H-1,2,3-triazole-4-carboxamide]	100 to 500 nM	500 to 5000 nM
O=C(NCc1ncccn1)c1cn(CCCCc2cc3cc(C4CC4)[nH]c3nn2)nn1 [Example 38, 1-(4-{6-cyclopropyl-7H-pyrrolo[2,3-c]pyridazin-3-yl}butyl)-N-(pyrimidin-2-ylmethyl)-1H-1,2,3-triazole-4-carboxamide]	500 to 5000 nM	500 to 5000 nM
COc1ccnc(CNC(=O)c2cn(CCCCc3cc4cc(C5CC5)[nH]c4nn3)nn2)c1 [Example 39, 1-(4-{6-cyclopropyl-7H-pyrrolo[2,3-c]pyridazin-3-yl}butyl)-N-[(4-methoxypyridin-2-yl)methyl]-1H-1,2,3-triazole-4-carboxamide]	100 to 500 nM	100 to 500 nM
O=C(NCc1ccc(C(F)(F)F)nc1)c1cn(CCCCc2cc3cc(C4CC4)[nH]c3nn2)nn1 [Example 40, 1-(4-{6-cyclopropyl-7H-pyrrolo[2,3-c]pyridazin-3-yl}butyl)-N-{[6-(trifluoromethyl)pyridin-3-yl]methyl}-1H-1,2,3-triazole-4-carboxamide]	< 100 nM	500 to 5000 nM
O=C(NCc1ccc(Cl)nc1)c1cn(CCCCc2cc3cc(C4CC4)[nH]c3nn2)nn1 [Example 41, N-[(6-chloropyridin-3-yl)methyl]-1-(4-{6-cyclopropyl-7H-pyrrolo[2,3-c]pyridazin-3-yl}butyl)-1H-1,2,3-triazole-4-carboxamide]	100 to 500 nM	500 to 5000 nM
COc1ccc(CNC(=O)c2cn(CCCCc3cc4cc(C5CC5)[nH]c4nn3)nn2)cn1 [Example 42, 1-(4-{6-cyclopropyl-7H-pyrrolo[2,3-c]pyridazin-3-yl}butyl)-N-[(6-methoxypyridin-3-yl)methyl]-1H-1,2,3-triazole-4-carboxamide]	< 100 nM	500 to 5000 nM
O=C(NCc1cccc(OCC(F)(F)F)n1)c1cn(CCCCc2cc3cc(C4CC4)[nH]c3nn2)nn1 [Example 43, 1-(4-{6-cyclopropyl-7H-pyrrolo[2,3-c]pyridazin-3-yl}butyl)-N-{[6-(2,2,2-trifluoroethoxy)pyridin-2-yl]methyl}-1H-1,2,3-triazole-4-carboxamide]	< 100 nM	500 to 5000 nM
COc1cc(CNC(=O)c2cn(CCCCc3cc4cc(C5CC5)[nH]c4nn3)nn2)ccn1 [Example 44, 1-(4-{6-cyclopropyl-7H-pyrrolo[2,3-c]pyridazin-3-yl}butyl)-N-[(2-methoxypyridin-4-yl)methyl]-1H-1,2,3-triazole-4-carboxamide]	100 to 500 nM	500 to 5000 nM
Cn1cnc(CNC(=O)c2cn(CCCCc3cc4cc(C5CC5)[nH]c4nn3)nn2)c1 [Example 45, 1-(4-{6-cyclopropyl-7H-pyrrolo[2,3-c]pyridazin-3-yl}butyl)-N-[(1-methyl-1H-imidazol-4-yl)methyl]-1H-1,2,3-triazole-4-carboxamide]	100 to 500 nM	500 to 5000 nM
Cc1cncc(CNC(=O)c2cn(CCCCc3cc4cc(C5CC5)[nH]c4nn3)nn2)c1 [Example 46, 1-(4-{6-cyclopropyl-7H-pyrrolo[2,3-c]pyridazin-3-yl}butyl)-N-[(5-methylpyridin-3-yl)methyl]-1H-1,2,3-triazole-4-carboxamide]	< 100 nM	500 to 5000 nM
Cc1ccncc1CNC(=O)c1cn(CCCCc2cc3cc(C4CC4)[nH]c3nn2)nn1 [Example 47, 1-(4-{6-cyclopropyl-7H-pyrrolo[2,3-c]pyridazin-3-yl}butyl)-N-[(4-methylpyridin-3-yl)methyl]-1H-1,2,3-triazole-4-carboxamide]	100 to 500 nM	500 to 5000 nM
